Among the data in ChEMBL document CHEMBL1201862, “PubChem BioAssay data set” (2004) are IC50 values, retold here.

Calls of active or inactive are those of the source. Rule as the data show it: actives have a measured IC50 and inactives only a lower limit.

By IC50 is commonly meant the concentration at which inhibition is half-maximal.

Sequence of Envelope glycoprotein gp160 (Q6QLK5 whole entry, the tested form may be a part): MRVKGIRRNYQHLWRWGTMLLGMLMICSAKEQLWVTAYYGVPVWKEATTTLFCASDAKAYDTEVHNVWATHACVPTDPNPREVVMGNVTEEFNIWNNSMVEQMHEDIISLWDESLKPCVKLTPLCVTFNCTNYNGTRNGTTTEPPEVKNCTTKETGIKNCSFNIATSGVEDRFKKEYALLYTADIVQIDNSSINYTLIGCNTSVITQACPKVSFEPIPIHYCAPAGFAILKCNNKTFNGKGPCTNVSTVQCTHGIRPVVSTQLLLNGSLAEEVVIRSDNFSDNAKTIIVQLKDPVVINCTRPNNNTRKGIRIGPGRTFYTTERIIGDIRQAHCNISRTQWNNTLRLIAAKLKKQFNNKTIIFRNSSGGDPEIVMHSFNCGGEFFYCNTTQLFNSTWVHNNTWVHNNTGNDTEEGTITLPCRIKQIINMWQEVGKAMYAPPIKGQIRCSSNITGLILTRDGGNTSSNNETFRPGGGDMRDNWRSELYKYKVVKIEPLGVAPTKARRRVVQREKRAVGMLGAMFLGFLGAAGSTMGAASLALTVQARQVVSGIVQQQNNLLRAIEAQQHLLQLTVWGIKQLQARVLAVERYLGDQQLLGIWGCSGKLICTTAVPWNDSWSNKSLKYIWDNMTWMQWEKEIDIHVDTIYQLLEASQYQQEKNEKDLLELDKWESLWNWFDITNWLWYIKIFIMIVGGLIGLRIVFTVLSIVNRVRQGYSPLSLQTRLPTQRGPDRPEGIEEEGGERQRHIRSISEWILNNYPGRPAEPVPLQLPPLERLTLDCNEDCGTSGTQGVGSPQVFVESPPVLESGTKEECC

This assay has as its target Envelope glycoprotein gp160 (Human immunodeficiency virus 1, UniProt Q6QLK5). Kind of assay: inhibitors of HIV fusion peptide binding, primary screen, biochemical, uHTS, fluorescence dequenching (AID 1986).
Consider `O=C(O)c1ccc(Nc2nc(-c3cc4ccccc4oc3=O)cs2)cc1O`, for which the IC50 was 11.5 µM (active). In the case of `O=C(COc1ccc2ccccc2c1)Nc1cccc(C(=O)Nc2ccccc2C(=O)O)c1`, the half-maximal inhibitory concentration (IC50) was 14.3 µM (active).

Consider `O=C(O)CCN1C(=O)/C(=C\c2cccc(OCC(=O)Nc3ccc(Cl)cc3)c2)SC1=S`, for which the half-inhibitory concentration (IC50) is 13.2 µM (active). Consider `COc1ccccc1OCCOc1ccc(/C=C2\C(=N)N3N=C(S(C)(=O)=O)SC3=NC2=O)cc1`, for which the IC50 was 33.8 µM (active). The value for `CCOC(=O)c1sc(N2C(=O)C(O)=C(C(=O)c3ccco3)C2c2ccc([N+](=O)[O-])cc2)nc1C` (stereo not given) was 17.6 µM (active).
